Legend:
Assay type in all cases: in vivo
[1] = test system: brown rice planthoppers (Nilaparvata lugens); experiment: Insecticidal test for brown rice planthoppers; details: Nilaparvata lugens, 144 h; 500 ppm chemical solution, rice leaf sheaths soaked, third-instar larvae, six days, 25°C; read-out: death rate
Outline: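 Rice leaf sheaths dipped ~10 s in 500 ppm compound solution (emulsion diluted in water with spreader), air-dried, then infested with five third-instar larvae per tube at 25 °C. Mortality scored after 6 days, death rate calculated, in duplicate.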

[2] = test system: green peach aphids (Myzus persicae); experiment: Insecticidal test for green peach aphids; details: Myzus persicae, foliar, 144 h; 500 ppm chemical solution sprinkled (2.5 mg/cm^2), wingless imagoes on leaf disc, six days, 25°C; read-out: death rate
Protocol: Wet absorbent cotton was laid on each glass dish having an inner diameter of 3 cm, a Chinese olive leaf cut into a circle having a diameter of 3 cm was placed thereon, and four wingless green peach aphids (Myzus persicae) imagoes were released. After a day, a 10% by mass emulsion of the presently invented compound prepared according to the above formulation example for an emulsion was diluted with water containing a spreader to prepare a chemical solution having a concentration of 500 ppm. The chemical solution prepared was sprinkled (2.5 mg/cm^2) with a rotary tower sprinkler, and the dishes were capped and accommodated in a thermostatic room at 25°C. […] The test was carried out in duplicate.

[3] = test system: western flower thrips (Frankliniella occidentalis); experiment: Insecticidal activity against western flower thrips; details: Frankliniella occidentalis, 48 h; 500 ppm chemical solution sprinkled (2.5 mg/cm^2), larvae on common bean leaf, after 2 days; read-out: death rate
Outline: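 Bean leaf squares on wet filter paper inoculated with 20 larvae. Compound emulsion diluted with spreader-containing water to 500 ppm and sprayed at 2.5 mg/cm^2 by rotary tower. Run in duplicate.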

[4] = test system: diamondback moths (Plutella xylostella); experiment: Insecticidal test for diamondback moths; details: Plutella xylostella, 144 h; 500 ppm chemical solution, leaves soaked, third-instar larvae, six days, 25°C; read-out: death rate
Outline: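 Leaves dipped about 10 s in a 500 ppm aqueous dilution of an emulsion formulation with spreader, then air-dried. Five third-instar larvae released per dish and held at 25 °C. Tested in duplicate.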

[5] = test system: cat fleas (Ctenocephalides felis); experiment: whole plant or invertebrate; details: 72 h, read-out: death rate
Outline: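 Glass containers (25 cm² inner surface) were coated with 250 µl of a 1000 ppm acetone solution, and the acetone was evaporated to leave a dry film. Five mixed-sex adult fleas were confined per container at 25°C. Mortality was scored after 3 days.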

Structure (SMILES) | mortality at 500 µg/mL [1] [%] | mortality at 500 µg/mL [2] [%] | mortality at 500 µg/mL [3] [%] | mortality at 500 µg/mL [4] [%] | mortality at 10 µg/cm2 [5] [%]
O=C(Nc1cncc(F)c1)C1=C(O)CC(c2cnc(Cl)c(-c3cnccc3F)c2)NC1=O (stereo not shown) [2-137] | ≥ 90 | ≥ 90 | ≥ 90 | ≥ 90 | ≥ 50
CS(=O)(=O)c1ccc(-c2cc(C3CC(O)=C(C(=O)Nc4ccc(F)cc4)C(=O)N3)ccc2C(F)(F)F)cc1 (stereo not shown) [1-019] | – | ≥ 90 | ≥ 90 | ≥ 90 | ≥ 50
O=C(Nc1ccccn1)C1=C(O)CC(c2nc(-c3ccc(F)cc3F)no2)NC1=O (stereo not shown) [3-132] | ≥ 90 | ≥ 90 | ≥ 90 | ≥ 90 | ≥ 50
O=C(Nc1cc(F)ccn1)C1=C(O)CC(c2nc(-c3cccc(F)c3F)no2)NC1=O (stereo not shown) [3-049] | ≥ 90 | ≥ 90 | ≥ 90 | ≥ 90 | ≥ 50
O=C(Nc1ccc(F)cc1)C1=C(O)CC(c2ccc(C(F)(F)F)c(-c3ccc(F)nc3)c2)NC1=O (stereo not shown) [1-001, N-(4-fluorophenyl)-6-[3-(6-fluoropyridin-3-yl)-4-(trifluoromethyl)phenyl]-4-hydroxy-2-oxo-1,2,5,6-tetrahydropyridine-3-carboxamide] | ≥ 90 | ≥ 90 | ≥ 90 | ≥ 90 | ≥ 50
C#Cc1ccc(NC(=O)C2=C(O)CC(c3cnc(Cl)c(-c4cccc(C)c4)c3)NC2=O)cc1 (stereo not shown) [2-280] | – | ≥ 90 | ≥ 90 | ≥ 90 | ≥ 50
O=C(Nc1ccc(F)cc1)C1=C(O)CC(c2nc(-c3ccc(F)cc3F)no2)NC1=O (stereo not shown) [3-131] | ≥ 90 | ≥ 90 | ≥ 90 | ≥ 90 | ≥ 50
CSc1ccc(-c2cc(C3CC(O)=C(C(=O)Nc4ccc(F)cc4)C(=O)N3)ccc2C(F)(F)F)cc1 (stereo not shown) [1-009] | – | ≥ 90 | ≥ 90 | ≥ 90 | ≥ 50
O=C(Nc1nccs1)C1=C(O)CC(c2nc(-c3ccncc3F)no2)NC1=O (stereo not shown) [3-246] | ≥ 90 | ≥ 90 | ≥ 90 | ≥ 90 | ≥ 50
Cc1cccc(-c2cc(C3CC(O)=C(C(=O)Nc4cccnc4Cl)C(=O)N3)cnc2Cl)c1 (stereo not shown) [2-274] | – | ≥ 90 | – | ≥ 90 | ≥ 50
O=C(Nc1ccc(F)cc1)C1=C(O)CC(c2ccc(C(F)(F)F)c(-c3ccoc3)c2)NC1=O (stereo not shown) [1-015] | – | ≥ 90 | ≥ 90 | ≥ 90 | ≥ 50
O=C(Nc1ccc(Cl)nc1)C1=C(O)CC(c2cnc(Cl)c(-c3ccc(F)nc3)c2)NC1=O (stereo not shown) [2-010] | ≥ 90 | ≥ 90 | ≥ 90 | ≥ 90 | ≥ 50
Cc1cccnc1NC(=O)C1=C(O)CC(c2nc(-c3ccc(F)cc3F)no2)NC1=O (stereo not shown) [3-174] | ≥ 90 | ≥ 90 | ≥ 90 | ≥ 90 | ≥ 50
O=C(Nc1ncccc1F)C1=C(O)CC(c2cnc(Cl)c(-c3cnccc3F)c2)NC1=O (stereo not shown) [2-141] | ≥ 90 | ≥ 90 | ≥ 90 | ≥ 90 | ≥ 50
O=C(Nc1ccc(F)nc1)C1=C(O)CC(c2cnc(Cl)c(-c3ccccc3)c2)NC1=O (stereo not shown) [2-091] | ≥ 90 | ≥ 90 | ≥ 90 | ≥ 90 | ≥ 50
CC(=O)c1cccc(-c2cc(C3CC(O)=C(C(=O)Nc4ccc(F)cc4)C(=O)N3)ccc2C(F)(F)F)c1 (stereo not shown) [1-011] | – | ≥ 90 | ≥ 90 | ≥ 90 | ≥ 50
O=C(Nc1ccc(F)cc1)C1=C(O)CC(c2nc(-c3cccc(F)c3F)no2)NC1=O (stereo not shown) [3-033] | ≥ 90 | ≥ 90 | – | ≥ 90 | ≥ 50
O=C(Nc1cnc(Br)cn1)C1=C(O)CC(c2cnc(Cl)c(-c3cccnc3)c2)NC1=O (stereo not shown) [2-099] | ≥ 90 | ≥ 90 | ≥ 90 | ≥ 90 | ≥ 50

Structure (SMILES) | mortality at 500 µg/mL [1] [%] | mortality at 500 µg/mL [2] [%] | mortality at 500 µg/mL [3] [%] | mortality at 500 µg/mL [4] [%] | mortality at 10 µg/cm2 [5] [%]
O=C(Nc1cc(F)ccn1)C1=C(O)CC(c2nc(-c3ccccc3F)no2)NC1=O (stereo not shown) [3-058] | ≥ 90 | ≥ 90 | ≥ 90 | ≥ 90 | ≥ 50
N#Cc1ccc(NC(=O)C2=C(O)CC(c3cnc(Cl)c(-c4cccnc4)c3)NC2=O)cn1 (stereo not shown) [2-097] | ≥ 90 | ≥ 90 | – | ≥ 90 | ≥ 50
O=C(Nc1ccc(F)cc1)C1=C(O)CC(c2nc(-c3cccc(Br)c3)no2)NC1=O (stereo not shown) [3-028] | ≥ 90 | ≥ 90 | ≥ 90 | ≥ 90 | ≥ 50
O=C(Nc1cnccc1F)C1=C(O)CC(c2cnc(Cl)c(-c3cncc(Cl)c3)c2)NC1=O (stereo not shown) [2-146] | ≥ 90 | ≥ 90 | ≥ 90 | ≥ 90 | ≥ 50
O=C(Nc1cnc(Cl)cn1)C1=C(O)CC(c2nc(-c3ccnc(Cl)c3)no2)NC1=O (stereo not shown) [3-268] | ≥ 90 | ≥ 90 | ≥ 90 | ≥ 90 | ≥ 50
CC(=O)c1ccc(-c2cc(C3CC(O)=C(C(=O)Nc4ccc(F)cc4)C(=O)N3)ccc2C(F)(F)F)cc1 (stereo not shown) [1-012] | – | ≥ 90 | – | – | ≥ 50
Cc1cccc(-c2noc(C3CC(O)=C(C(=O)Nc4cc(F)ccn4)C(=O)N3)n2)c1 (stereo not shown) [3-053] | ≥ 90 | ≥ 90 | – | ≥ 90 | ≥ 50
O=C(Nc1cnc(Cl)cn1)C1=C(O)CC(c2cnc(Cl)c(-c3cccnc3)c2)NC1=O (stereo not shown) [2-098] | ≥ 90 | ≥ 90 | – | ≥ 90 | ≥ 50
N#Cc1ccc(-c2cc(C3CC(O)=C(C(=O)Nc4ccc(F)cc4)C(=O)N3)ccc2C(F)(F)F)cc1 (stereo not shown) [1-023] | – | ≥ 90 | ≥ 90 | ≥ 90 | ≥ 50
O=C(Nc1ccc(F)cn1)C1=C(O)CC(c2nc(-c3snc(Cl)c3Cl)no2)NC1=O (stereo not shown) [3-254] | ≥ 90 | ≥ 90 | ≥ 90 | ≥ 90 | ≥ 50
O=C(Nc1cccc(Cl)c1F)C1=C(O)CC(c2nc(-c3ccnc(F)c3)no2)NC1=O (stereo not shown) [3-248] | – | ≥ 90 | – | ≥ 90 | ≥ 50
O=C(Nc1ccc(F)cc1)C1=C(O)CC(c2ccc(C(F)(F)F)c(-c3ccccc3F)c2)NC1=O (stereo not shown) [1-005] | – | ≥ 90 | ≥ 90 | ≥ 90 | ≥ 50
COc1cccc(-c2cc(C3CC(O)=C(C(=O)Nc4ccc(F)cc4)C(=O)N3)ccc2C(F)(F)F)c1 (stereo not shown) [1-017] | – | ≥ 90 | ≥ 90 | ≥ 90 | ≥ 50
O=C(Nc1ccc(F)cc1)C1=C(O)CC(c2ccc(C(F)(F)F)c(-c3ccccc3)c2)NC1=O (stereo not shown) [1-004] | – | ≥ 90 | – | ≥ 90 | ≥ 50
COc1ccccc1-c1cc(C2CC(O)=C(C(=O)Nc3ccc(F)cc3)C(=O)N2)ccc1C(F)(F)F (stereo not shown) [1-016] | – | ≥ 90 | ≥ 90 | ≥ 90 | ≥ 50
O=C(Nc1ccc(F)cc1)C1=C(O)CC(c2nc(-c3ccsc3)no2)NC1=O (stereo not shown) [3-109] | – | ≥ 90 | ≥ 90 | ≥ 90 | ≥ 50
CSc1ccccc1-c1cc(C2CC(O)=C(C(=O)Nc3ccc(F)cc3)C(=O)N2)ccc1C(F)(F)F (stereo not shown) [1-008] | – | ≥ 90 | ≥ 90 | ≥ 90 | ≥ 50

From EP4582413A1, “ARYLTETRAHYDROPYRIDINE COMPOUND AND PEST CONTROL AGENT” (priority 2022, dated 2024)
